ChEMBL document CHEMBL1201862, “PubChem BioAssay data set” (2004)
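Five concentrations, 48 hours, 96-well plates. GI50 marks 50% less growth.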 Activity calls are given as the source filed them. No stated cut-off is given here; in the data, active = GI50 up to about 1.1 µM and inactive = higher.

How the values were obtained:
Assay in all cases: DTP human tumour cell line panel, 48 h
786-0 = system: 786-0
A549 = system: A549
ACHN = system: ACHN
BT-549 = system: BT-549
CAKI-1 = system: CAKI-1
CCRF-CEM = system: CCRF-CEM
COLO 205 = system: COLO 205
DU-145 = system: DU-145
EKVX = system: EKVX
HCC 2998 = system: HCC 2998
HCT-116 = system: HCT-116
HCT-15 = system: HCT-15
HL-60 = system: HL-60
HOP-62 = system: HOP-62
HOP-92 = system: HOP-92
HT-29 = system: HT-29
Hs-578T = system: Hs-578T
IGROV-1 = system: IGROV-1
K562 = system: K562
KM12 = system: KM12
LOX IMVI = system: LOX IMVI
M14 = system: M14
MCF7 = system: MCF7
MDA-MB-231 = system: MDA-MB-231
MDA-MB-435 = system: MDA-MB-435
MDA-N = system: MDA-N
MOLT-4 = system: MOLT-4
Malme-3M = system: Malme-3M
NCI-H226 = system: NCI-H226
NCI-H23 = system: NCI-H23
NCI-H460 = system: NCI-H460
NCI-H522 = system: NCI-H522
NCI/ADR-RES = system: NCI/ADR-RES
OVCAR-3 = system: OVCAR-3
OVCAR-4 = system: OVCAR-4
OVCAR-5 = system: OVCAR-5
OVCAR-8 = system: OVCAR-8
PC-3 = system: PC-3
RPMI-8226 = system: RPMI-8226
RXF 393 = system: RXF 393
SF-268 = system: SF-268
SF-295 = system: SF-295
SF-539 = system: SF-539
SK-MEL-2 = system: SK-MEL-2
SK-MEL-5 = system: SK-MEL-5
SK-OV-3 = system: SK-OV-3
SN12C = system: SN12C
SNB-19 = system: SNB-19
SNB-75 = system: SNB-75
SR = system: SR
SW-620 = system: SW-620
T47D = system: T47D
TK-10 = system: TK-10
U-251 = system: U-251
UACC-257 = system: UACC-257
UACC-62 = system: UACC-62
UO-31 = system: UO-31
SK-MEL-28 = system: SK-MEL-28

O=Cc1c2ccccc2n2ccc3c4ccccc4[nH]c3c12
GI50 (786-0): > 10 µM (inactive) | GI50 (A549): > 10 µM (inactive) | GI50 (ACHN): > 10 µM (inactive) | GI50 (BT-549): > 10 µM (inactive) | GI50 (CAKI-1): > 10 µM (inactive) | GI50 (CCRF-CEM): > 10 µM (inactive) | GI50 (COLO 205): > 10 µM (inactive) | GI50 (DU-145): > 10 µM (inactive) | GI50 (EKVX): 3.57 µM (inactive) | GI50 (HCC 2998): > 10 µM (inactive) | GI50 (HCT-116): > 10 µM (inactive) | GI50 (HCT-15): > 10 µM | GI50 (HL-60): > 10 µM (inactive) | GI50 (HOP-62): > 10 µM (inactive) | GI50 (HOP-92): > 10 µM (inactive) | GI50 (HT-29): > 10 µM (inactive) | GI50 (Hs-578T): > 10 µM (inactive) | GI50 (IGROV-1): > 10 µM (inactive) | GI50 (K562): > 10 µM (inactive) | GI50 (KM12): 0.344 µM (active) | GI50 (LOX IMVI): > 10 µM (inactive) | GI50 (M14): > 10 µM (inactive) | GI50 (MCF7): 5.21 µM (inactive) | GI50 (MDA-MB-231): > 10 µM (inactive) | GI50 (MDA-MB-435): > 10 µM (inactive) | GI50 (MDA-N): > 10 µM (inactive) | GI50 (MOLT-4): > 10 µM (inactive) | GI50 (Malme-3M): > 10 µM (inactive) | GI50 (NCI-H226): > 10 µM (inactive) | GI50 (NCI-H23): > 10 µM (inactive) | GI50 (NCI-H460): > 10 µM (inactive) | GI50 (NCI-H522): > 10 µM (inactive) | GI50 (NCI/ADR-RES): > 10 µM (inactive) | GI50 (OVCAR-3): > 10 µM (inactive) | GI50 (OVCAR-4): > 10 µM (inactive) | GI50 (OVCAR-5): > 10 µM (inactive) | GI50 (OVCAR-8): > 10 µM (inactive) | GI50 (PC-3): > 10 µM (inactive) | GI50 (RPMI-8226): > 10 µM (inactive) | GI50 (RXF 393): > 10 µM (inactive) | GI50 (SF-268): > 10 µM (inactive) | GI50 (SF-295): > 10 µM (inactive) | GI50 (SF-539): > 10 µM (inactive) | GI50 (SK-MEL-2): > 10 µM (inactive) | GI50 (SK-MEL-5): > 10 µM (inactive) | GI50 (SK-OV-3): > 10 µM (inactive) | GI50 (SN12C): > 10 µM (inactive) | GI50 (SNB-19): > 10 µM (inactive) | GI50 (SNB-75): > 10 µM (inactive) | GI50 (SR): 8.77 µM (inactive) | GI50 (SW-620): > 10 µM (inactive) | GI50 (T47D): > 10 µM (inactive) | GI50 (TK-10): > 10 µM (inactive) | GI50 (U-251): > 10 µM (inactive) | GI50 (UACC-257): > 10 µM (inactive) | GI50 (UACC-62): > 10 µM (inactive) | GI50 (UO-31): > 10 µM (inactive)

O=C1CC(=O)NC(NNS(=O)(=O)c2ccccc2)=N1
GI50 (786-0): > 100 µM (inactive) | GI50 (A549): > 100 µM (inactive) | GI50 (ACHN): > 100 µM (inactive) | GI50 (BT-549): > 100 µM (inactive) | GI50 (CAKI-1): > 100 µM (inactive) | GI50 (CCRF-CEM): > 100 µM (inactive) | GI50 (COLO 205): > 100 µM (inactive) | GI50 (DU-145): > 100 µM (inactive) | GI50 (HCC 2998): > 100 µM (inactive) | GI50 (HCT-116): > 100 µM (inactive) | GI50 (HCT-15): > 100 µM | GI50 (HOP-62): > 100 µM (inactive) | GI50 (HOP-92): > 100 µM (inactive) | GI50 (HT-29): > 100 µM (inactive) | GI50 (Hs-578T): > 100 µM (inactive) | GI50 (IGROV-1): > 100 µM (inactive) | GI50 (K562): > 100 µM (inactive) | GI50 (KM12): > 100 µM (inactive) | GI50 (M14): > 100 µM (inactive) | GI50 (MCF7): > 100 µM (inactive) | GI50 (MDA-MB-231): > 100 µM (inactive) | GI50 (MDA-MB-435): > 100 µM (inactive) | GI50 (MDA-N): > 100 µM (inactive) | GI50 (MOLT-4): > 100 µM (inactive) | GI50 (Malme-3M): > 100 µM (inactive) | GI50 (NCI-H226): > 100 µM (inactive) | GI50 (NCI-H23): > 100 µM (inactive) | GI50 (NCI-H460): > 100 µM (inactive) | GI50 (NCI-H522): > 100 µM (inactive) | GI50 (NCI/ADR-RES): > 100 µM (inactive) | GI50 (OVCAR-3): > 100 µM (inactive) | GI50 (OVCAR-4): > 100 µM (inactive) | GI50 (OVCAR-5): > 100 µM (inactive) | GI50 (OVCAR-8): > 100 µM (inactive) | GI50 (PC-3): > 100 µM (inactive) | GI50 (RPMI-8226): > 100 µM (inactive) | GI50 (RXF 393): > 100 µM (inactive) | GI50 (SF-268): > 100 µM (inactive) | GI50 (SF-295): > 100 µM (inactive) | GI50 (SF-539): > 100 µM (inactive) | GI50 (SK-MEL-28): > 100 µM (inactive) | GI50 (SK-MEL-2): > 100 µM (inactive) | GI50 (SK-MEL-5): > 100 µM (inactive) | GI50 (SK-OV-3): > 100 µM (inactive) | GI50 (SN12C): > 100 µM (inactive) | GI50 (SNB-19): > 100 µM (inactive) | GI50 (SNB-75): > 100 µM (inactive) | GI50 (SR): > 100 µM (inactive) | GI50 (SW-620): > 100 µM (inactive) | GI50 (T47D): > 100 µM (inactive) | GI50 (TK-10): > 100 µM (inactive) | GI50 (U-251): > 100 µM (inactive) | GI50 (UACC-257): > 100 µM (inactive) | GI50 (UACC-62): > 100 µM (inactive) | GI50 (UO-31): > 100 µM (inactive)

N#CCC(=O)Nn1c(CC#N)nnc1Cc1ccccc1
GI50 (786-0): > 100 µM (inactive) | GI50 (A549): > 100 µM (inactive) | GI50 (ACHN): > 100 µM (inactive) | GI50 (BT-549): > 100 µM (inactive) | GI50 (CAKI-1): > 100 µM (inactive) | GI50 (DU-145): > 100 µM (inactive) | GI50 (HCC 2998): > 100 µM (inactive) | GI50 (HCT-116): > 100 µM (inactive) | GI50 (HCT-15): > 100 µM | GI50 (HL-60): > 100 µM (inactive) | GI50 (HOP-62): > 100 µM (inactive) | GI50 (HOP-92): > 100 µM (inactive) | GI50 (HT-29): > 100 µM (inactive) | GI50 (Hs-578T): > 100 µM (inactive) | GI50 (IGROV-1): > 100 µM (inactive) | GI50 (K562): > 100 µM (inactive) | GI50 (KM12): > 100 µM (inactive) | GI50 (M14): > 100 µM (inactive) | GI50 (MCF7): > 100 µM (inactive) | GI50 (MDA-MB-231): > 100 µM (inactive) | GI50 (MDA-MB-435): > 100 µM (inactive) | GI50 (MDA-N): > 100 µM (inactive) | GI50 (MOLT-4): > 100 µM (inactive) | GI50 (Malme-3M): > 100 µM (inactive) | GI50 (NCI-H226): > 100 µM (inactive) | GI50 (NCI-H23): > 100 µM (inactive) | GI50 (NCI-H460): > 100 µM (inactive) | GI50 (NCI-H522): > 100 µM (inactive) | GI50 (NCI/ADR-RES): > 100 µM (inactive) | GI50 (OVCAR-3): > 100 µM (inactive) | GI50 (OVCAR-5): > 100 µM (inactive) | GI50 (OVCAR-8): > 100 µM (inactive) | GI50 (PC-3): > 100 µM (inactive) | GI50 (RPMI-8226): > 100 µM (inactive) | GI50 (RXF 393): > 100 µM (inactive) | GI50 (SF-268): > 100 µM (inactive) | GI50 (SF-295): > 100 µM (inactive) | GI50 (SF-539): > 100 µM (inactive) | GI50 (SK-MEL-28): > 100 µM (inactive) | GI50 (SK-MEL-2): > 100 µM (inactive) | GI50 (SK-MEL-5): > 100 µM (inactive) | GI50 (SN12C): > 10 µM (inactive) | GI50 (SNB-19): > 100 µM (inactive) | GI50 (SNB-75): > 100 µM (inactive) | GI50 (SR): > 100 µM (inactive) | GI50 (SW-620): > 100 µM (inactive) | GI50 (T47D): > 100 µM (inactive) | GI50 (TK-10): > 100 µM (inactive) | GI50 (U-251): > 100 µM (inactive) | GI50 (UACC-257): > 100 µM (inactive) | GI50 (UACC-62): > 100 µM (inactive) | GI50 (UO-31): > 100 µM (inactive)
